Tested on: CREB
Assay: CREB levels in severed axons by immunofluorescence
Type: cell-based, rat
Conditions: for NGF-dependent restoration of CREB immunofluorescence: 1 μM cycloheximide or 40 μM anisomycin, concurrent with NGF replacement
Method: FIGS. 7A-B are results showing the axonal translation and retrograde transport of endogenous CREB. (A) CREB levels in severed axons of E15 DRGs were assayed by immunofluorescence with a CREB-specific antibody. CREB was depleted on removal of NGF, with near complete loss of fluorescence signals by 3 hours. […] The error bars represent s.e.m. (n=40). (B) CREB is depleted from axon terminals in a microtubule-dependent manner. CREB levels in severed axons were monitored, as in A, after removal and restoration of NGF, in the presence of LLnL or colchicine. Colchicine, but not LLnL, blocked the reduction in CREB levels following removal of NGF. The error bars represent s.e.m. (n=40).
E15 rat or E13 mouse embryonic dorsal root ganglion (DRG) explants were plated on glass-bottom culture dishes (MatTek) or glass coverslips pre-coated with 33 μg/ml poly-D-lysine and 1 μg/ml laminin. CREB^α/Δ−/+ animals used to generate CREB^α/Δ−/− embryos were from Jackson Labs. E15 dissociated DRG neurons were prepared as described by Wu et al., Nature 436, 1020-1024 (2005). DRGs were cultured in B27/Neurobasal medium (Invitrogen) supplemented with 100 ng/ml nerve growth factor (NGF) and […] 5′-fluorodeoxyuridine (5-FdU) for 3 days. siRNA-mediated knockdown in DRG neurons has been described previously by Higuchi et al., Biochemical & Biophysical Research Communications 301, 804-809 (2003) and was performed using siRNAs listed in Table S3. For measurements of CREB levels in isolated axons, axons were severed from cell bodies by removing the explant with a flame-sharpened Pasteur pipette (Wu et al., Nature 436, 1020-1024 (2005)). Modified Boyden chambers were based on the procedure of Twiss (Zheng et al., Journal of Neuroscience 21, 9291-9303 (2001)) and modified to obtain distal axons as described by Wu et al., Nature 436, 1020-1024 (2005). mRNA from harvested axons (Wu et al., Nature 436, 1020-1024 (2005)) was used to prepare a cDNA library using a modified, unbiased single cell protocol as described below. See also Tietjen et al., Neuron 38, 161-175 (2003). Compartmented (Campenot) cultures were prepared as described below. See also Campenot, Proc Natl Acad Sci USA 74, 4516-4519 (1977)).
Images and measurements of signals in axons were taken from the terminal 50 μm of the axon, except where indicated. Analyzed axons were a minimum of 2000 μm for all experiments. DRGs were fixed with 4% PFA in CBS overnight at 4° C., permeabilized with 0.5% Triton X-100/TBS, and blocked in 4% BSA/TBS for 1 hour. DRGs were labeled with antibodies (Table S4) in 2% BSA/0.1% Triton X-100/TBS overnight at 4° C. For image acquisition details, see below.
The axonal localization of CREB was also examined by immunofluorescence. Axons were severed from cultured DRG explants to rule out potential contributions from anterograde transport of cell body-derived CREB. […] Although the majority of CREB protein localized to the nucleus, with substantially lower levels in axons (FIG. 4D), the immunofluorescence signal in axons was specific. Similar immunofluorescence staining was seen using a different CREB-specific antibody that recognized a non-overlapping epitope.
The importin proteins, which bind nuclear-localization sequences (NLS) (Goldfarb et al., Trends in Cell Biology 14, 505-514 (2004)), are present in axons and mediate the retrograde trafficking of axonally-injected fluorescently-labeled NLS peptides (Hanz et al., Neuron 40, 1095-1104 (2003)). Since CREB contains a NLS that mediates its nuclear localization (Waeber & Habener, Mol Endocrinol 5, 1418-1430 (1991)), axonal CREB may be retrogradely transported to the cell body. To determine if endogenously-expressed CREB is retrogradely trafficked, we examined the time course of CREB reduction in axons upon replacement of media with NGF-free media. […]

`COc1ccc(C[C@H]2NC[C@H](O)[C@H]2OC(C)=O)cc1` [anisomycin] was tested, and the “NGF-dependent restoration of CREB immunofluorescence” value was “prevented the restoration of CREB immunofluorescence”.

In the case of `C[C@@H]1C[C@@H]([C@H](O)CC2CC(=O)NC(=O)C2)C(=O)[C@@H](C)C1` [cycloheximide], the “CREB immunoreactivity in severed axons” value (100 ng/ml NGF + 1 μM cycloheximide, 3 hours) is reported as “loss of CREB immunoreactivity” and the “NGF-dependent restoration of CREB immunofluorescence” value is reported as “prevented the restoration of CREB immunofluorescence”.

For NGF: nerve growth factor, the “time for axonal CREB levels to decrease to baseline” value (after NGF removal) was ≤ 3 h, the “time for CREB levels to return to original levels” value (following restoration of NGF) was 2 h and the “recovery in CREB levels” value (within 30 min of NGF restoration) was ~40%.

From patent US12103952B2, “Methods for expressing proteins in axons” (Cornell University, priority 2010, dated 2024)
